Experiment: Solubility in water at room temperature and pressure (general statement)
Assay type: physicochemical

Solubility in water: soluble in water
Compound: CC1OC(OC2C(OC3C(CO)OC(O)C(O)C3O)OC(CO)C(O)C2O)C(O)C(O)C1O (stereo not shown) [2′-FL, 2′-fucosyllactose]
